A short description of one data set: pKa measurement. The data set is classed as physicochemical. To be noted: read-out: pKa.
For data set [1], the system named is wild type E. coli (ATCC 25922). Nature of the data set: Bacterial cytological profiling at pH 4, 5.5, 7 (Example 7), E. coli. The data set is classed as cell-based. To be noted: pH 5.5 and 7. The procedure:
(§1) This bacterial cytological profiling (BCP) investigation uses methods and materials described previously by Nonejuie, P., Burkart, M., Poglianoa, K., Pogiano, J. (2013). Bacterial cytological profiling rapidly identifies the cellular pathways targeted by antibacterial molecules. Proc. Natl. Acad. Sci. U.S.A. 110(40):16169-16174. doi: 10.1073/pnas.1311066110.
(§2) For viable cell counts, cells are grown to OD600≈0.4 and diluted 1:1 into buffered or unbuffered media containing various compound concentrations. Samples are then collected and serially diluted (1:10) on a 96 well plate. Five microliters from each well are spotted on LB plates, incubated at 30° C., and viable cells are counted the next day.
(§3) Samples are collected at 10, 30, 120, and 240 min of exposure for viable cell count and imaging. For imaging, E. coli and S. aureus 200 μL of treated cells per time point are stained with 0.8 μg/mL FM4-64, 1.5 μg/mL DAPI, and 0.4 μM SYTOXGreen (Molecular Probes/Invitrogen). P. aeruginosa samples are stained 0.4 μM SYTOX Green, 28 μg/mL DAPI, and 1 μg/mL FM 4-64. Cells are transferred to an agarose pad (20% LB, 1% agarose) for imaging.
(§4) For Nu-3 and Nu-8 stocks (at pH 4, 5.5 and 7), stock concentration is 500 mg/mL. For pH 4, the stocks are prepared by dissolving Nu-3 in 25 mM citrate buffer and Nu-8 in 350 mM citric acid. […]

For data set [2], the system named is methicillin susceptible S. aureus (ATCC 29213). Nature of the data set: Bacterial cytological profiling at pH 4, 5.5, 7 (Example 7), S. aureus. The data set is classed as cell-based. Conditions: 125 mg/mL. The procedure: as §1, §2, §3, §4
The next data set relates to E. coli. The experiment in a line: Broth microdilution MIC at incremental pH, E. coli. Format: cell-based. To be noted: Escherichia coli, read-out: MIC. The procedure:
(§5) MIC testing is conducted using the broth (Mueller Hinton Broth) microdilution procedures relevant to each organism group as established by the Clinical and Laboratory Standards Institute (CLSI; 3-7). MIC plates are prepared in accordance with CLSI (3-7). To prepare the test plates, automated liquid handlers are used to conduct serial dilutions and liquid transfers. Automated liquid handlers utilized in this study include the Multidrop 384 (Labsystems, Helsinki, Finland) and the Biomek 2000 (Beckman Coulter, Fullerton CA). The solution is diluted to desired pH using 1 M Citric Acid or 1 M NaOH buffer. A standardized inoculum of each test organism is prepared per CLSI methods (3, 5-7) to equal a 0.5 McFarland standard in the appropriate media followed by an additional 1:20 dilution (1:10 for anaerobes).
(§6) The plates are then inoculated with 10 μL of the diluted 0.5 McFarland suspension using the Biomek 2000 from low to high drug concentration, resulting in a final concentration of approximately 5×10^5 CFU/mL per well. An un-inoculated plate is incubated for the purpose of assessing solubility of the drug in the test media. The plates are stacked 3 to 4 high, covered with a sterile lid on the top plate, and incubated for 18 to 24 hours according to CLSI. The MIC is recorded as the lowest concentration of respective compound that inhibited visible growth of the organism.

The subject of another data set is P. aeruginosa. Nature of the data set: Broth microdilution MIC at incremental pH, P. aeruginosa. To be noted: Pseudomonas aeruginosa, read-out: MIC. The data set is classed as cell-based. The procedure: as §5, §6
(In broth dilution the organism is exposed to a series of concentrations in liquid medium.)

For data set [3], the system named is Escherichia coli (strain CFT073, TPPS 1041). The experiment in a line: Initial urinary tract infection model in BALB/c mice, transurethral treatment (Example 9). To be noted: 50 mg/kg transurethral 24 hr post-challenge; 60 minutes post-treatment. The data set is classed as in vivo. The source says:
Female BALB/c mice (20-22 g) ordered from Envigo are acclimated to housing conditions and handled in accordance with Animal Use Protocol (AUP) number TP-08. Animals are fed irradiated Teklad Global 29 18 Rodent Diet and water ad libitum. Mice are housed 6/cage in static cages with irradiated ⅛″ Teklad corn cobbedding 7902 inside bioBubble® clean rooms that provide H.E.P.A filtered air into the bubble environment at 100 complete air changes per hour. The environment is controlled to a temperature range of 74°±4° F. and a humidity range of 30-70%. All procedures carried out in this experiment are conducted in compliance with the laws, regulations, and guidelines of the National Institutes of Health and with the approval of the TransPharm Preclinical Solutions Animal Care and Use Committee.
A clinical isolate of Escherichia coli (strain CFT073, TPPS 1041) are procured from the University of Michigan.
The organism is grown overnight at 37° C. in ambient atmosphere on trypticase soy agar plates supplemented with 5% sheep blood cells. The culture is aseptically swabbed and transferred to tubes of trypticase soy broth. The optical density is determined at 600 nm. The culture is diluted to provide an inoculum of approximately 7.5 log10 CFU per mouse in a volume of 30 μL. Instillation of the bacterial challenge constituted time 0 hour for the study. Inoculum counts are estimated before inoculation by optical density and confirmed after inoculation by dilution and back counts.
One hour prior to bacterial challenge, water is removed from animal cages. […]
The primary endpoint used to assess progress of the infection is mean bacterial burden per gram of urinary bladder tissue. […] Colony forming units (CFU) are enumerated and the total bacterial burden per gram of urinary bladder tissue homogenate is calculated.
The geometric mean CFU, along with standard error of the mean (SEM), are calculated using Microsoft Excel and bar charts are prepared for the data using GraphPad Prism v. […]

≈ marks a conversion by molar mass, not a printed value. Where two headings read alike, the source gives them in different places.

`COC1[C@@H](OP(=O)(O)OCCCCO)[C@@H](COP(=O)(O)OCCCCO)O[C@H]1n1ccc(=O)[nH]c1=O` (stereo partly shown) [Nu-2]: in “pKa measurement”, the pKa (usually the negative logarithm of the acid dissociation constant) was found to be 2.3.
In the case of `CCCCOP(=O)(O)OC[C@H]1O[C@@H](n2cc(C)c(=O)[nH]c2=O)C[C@@H]1OP(=O)(O)OCCCC` [Nu-3], in data set [1], the “effect on cell permeability, cell viability and growth” value is listed as “ineffective”. In addition, the cell growth result in data set [2] is on record as “slight reduction in cell growth resembling that at pH 4 alone”. The minimal inhibitory concentration (MIC) – broadly, the smallest concentration in the dilution series that meets the test's criterion for growth inhibition – in the data set with E. coli (pH 1) was 12.5 mg/mL (≈ 24.3 mM); with E. coli (pH 3), more than 100 mg/mL; in the data set on E. coli (pH 5), more than 100 mg/mL; with E. coli (pH 7) it was more than 100 mg/mL; with P. aeruginosa (pH 1) it was 12.5 mg/mL (≈ 24.3 mM); in the data set with P. aeruginosa (pH 3), more than 100 mg/mL. Also, the minimal inhibitory concentration (MIC) with P. aeruginosa (pH 5) and in the data set with P. aeruginosa (pH 7) was more than 100 mg/mL each time.
For the compound `CCCCOP(=O)(O)OC[C@H]1O[C@@H](n2cc(C)c(=O)[nH]c2=O)C[C@H]1OP(=O)(O)OCCCC` [Nu-4], in “pKa measurement”, the pKa turned out to be 2.3.
`CCCCOP(=O)(O)OCCOCCOP(=O)(O)OCCCC` [Nu-5]: in the data set “pKa measurement”, the pKa was determined as 2.28. The MIC in the data set with E. coli (pH 1) came to 6.25 mg/mL (≈ 16.5 mM); with E. coli (pH 3), 100 mg/mL (≈ 264 mM); with E. coli (pH 5), 100 mg/mL (≈ 264 mM); in the data set on E. coli (pH 7), 100 mg/mL (≈ 264 mM); in the data set with P. aeruginosa (pH 1) it was 6.25 mg/mL (≈ 16.5 mM); in the data set with P. aeruginosa (pH 3), 100 mg/mL (≈ 264 mM). Also, the MIC in the data set with P. aeruginosa (pH 5) and in the data set with P. aeruginosa (pH 7) was 100 mg/mL (≈ 264 mM) throughout.
Regarding gentamicin [reference compound], the “average bladder CFU burden” value in data set [3] is 6.1 log10 CFU.
